Results: patent publication US6106844A, “Immunomodulatory peptides of vespid antigen 5” (The Rockfeller University, priority 1998, dated 2000)

Legend:
Type in all cases: cell-based
[1] = system: Ag5 specific spleen cells from BALB/c mice; assay: In vitro proliferation assay, spleen cells of Ag5-immunized BALB/c mice; settings: for Stimulation Index BALB/c: spleen cells from mice immunized with rAg5, blank 3970 cpm
Experimental: (§1) FIG. 4. Stimulation index profile of BALB/c mice spleens after 4 immunizations with natural (n)-Ag5. In vitro proliferation assays were performed with peptides at three concentrations: 1×10^-5 M (open bar), 1.25×10^-6 M ("uphill" hatch), and 1.56×10^-7 M ("downhill" hatch). The corresponding concentrations of recombinant antigen 5 control were 1.0×10^-6 M, 1.25×10^-7, and 1.56×10^-8 M. The blank was 2200 cpm.
as §1, with “5.” for “4.”, “recombinant (r)-Ag5.” for “natural (n)-Ag5.”, “Antigen” for “antigen”, “5” for “5 control”, “4700” for “2200”
FIG. 6. […] In vitro proliferation assays were performed with peptides at three concentrations: 1×10^-5 M (open bar), 1.25×10^-6 M ("uphill" hatch), and 1.56×10^-7 M ("downhill" hatch). The corresponding concentrations of recombinant Antigen 5 were 1.0×10^-6 M, 1.25×10^-7, and 1.56×10^-8 M. […]
(§2) The peptides of the invention can be tested in a proliferation assay for T cell responses. Generally, lymphocytes from a sensitized host are obtained. The host can be a mouse that has been immunized with a vespid venom antigen 5, or with a crossreactive protein, such as testes specific protein. Using techniques that are well known in the art, T lymphocyte response to the peptide can be measured in vitro. In a specific embodiment, infra, T cell responses are detected by measuring incorporation of ^3 H-thymidine, which increases with DNA synthesis associated with proliferation. Cell proliferation can also be detected using an MTT assay [Mossman, J. Immunol. Methods, 65:55-63,(1983); Niks and Otto, J. Immunol. Methods, 130:140-151 (1990)]. Alternatively, lymphokine production assays can be practiced according to the present invention. In one embodiment, lymphokine production can be assayed using immunological or co-stimulation assays [see, e.g., Fehlner et al., J. Immunol., 146:799 (1991)] or using the ELISPOT technique [Czerkinsky, et al., J. Immunol. Methods, 110:29 (1988)]. Alternatively, mRNA for lymphokines can be detected, e.g., by amplification [see Brenner, et al., Biotechniques, 7:1096 (1989)] or in situ hybridization [see, e.g., Kasaian and Biron, J. Immunol., 142:1287 (1989)]. Of particular interest are those individuals whose T cells produce lymphokines associated with IgE isotype switch events, e.g., IL-4 and IL-5 [Purkeson and Isakson, J. Exp. Med., 175:973-982 (1992)]. Also of interest are the peptide fragments of the vespid venom antigen 5 that contain epitopes recognized by T cells involved in IgE switch events. […]

[2] = system: r-Ag5 specific spleen cells from ASW/Sn mice; assay: In vitro proliferation assay, spleen cells of r-Ag5-immunized ASW/Sn mice; settings: spleen cells from mice immunized 5 times with rAg5; blank 5640 cpm
Experimental: (§3) FIG. 11. Stimulation index profile of ASW/sn mice spleens after 5 immunizations with r-Ag5. In vitro proliferation assays were performed with peptides at three concentrations: 1×10^-5 M (open bar), 1.25×10^-6 M ("uphill" hatch), and 1.56×10^-7 M ("downhill" hatch). The corresponding concentrations of recombinant Antigen 5 were 1.0×10^-6 M, 1.25×10^-7, and 1.56×10^-8 M. The blank was 5640 cpm.
as §2

[3] = system: r-Ag5 specific spleen cells from C57B1/6 mice; assay: In vitro proliferation assay, spleen cells of r-Ag5-immunized C57B1/6 mice; settings: spleen cells from mice immunized 5 times with rAg5; blank 1050 cpm
Experimental: as §3, with “14.” for “11.”, “CS7B1/6” for “ASW/sn”, “1.56×10 ^-7” for “1.56×10^-7”, “1050” for “5640”
(§4) The peptides of the invention can be tested in a proliferation assay for T cell responses. Generally, lymphocytes from a sensitized host are obtained. The host can be a mouse that has been immunized with a vespid venom antigen 5, or with a crossreactive protein, such as testes specific protein. Using techniques that are well known in the art, T lymphocyte response to the peptide can be measured in vitro. In a specific embodiment, infra, T cell responses are detected by measuring incorporation of ^3 H-thymidine, which increases with DNA synthesis associated with proliferation. Cell proliferation can also be detected using an MTT assay [Mossman, J. Immunol. Methods, 65:55-63,(1983); Niks and Otto, J. Immunol. Methods, 130:140-151 (1990)]. […] Alternatively, mRNA for lymphokines can be detected, e.g., by amplification [see Brenner, et al., Biotechniques, 7:1096 (1989)] or in situ hybridization [see, e.g., Kasaian and Biron, J. Immunol., 142:1287 (1989)]. […]

[4] = system: r-Ag5 specific spleen cells from mice of different strains; assay: Summary of proliferation indices across mouse strains; settings: four strains BALB/c, ASW/Sn, C3H/He, P/J, C57B1/6 excluded
Description: Summary of proliferation indices of r-Ag5 specific spleen
cells from mice of different strains on stimulation with the
dominant T cell epitope peptides^1
^1 Dominant T cell epitopes are defined as those peptides which showe
stimulation indices of ≥4 in at least one of 5 strains of mice
The present Example defines indices of 4 or greater for proliferation of Ag5- specific cells as containing a T cell epitope of Ag5. With this definition, the data in FIGS. 3-13 for mice of 5 strains with different haplotypes would indicate that the T cell epitopes of Ag5 are distributed throughout the entire molecule. As C57B1/6 mice is a poor responder, its data are excluded in the following comparison.
The data in Table 4 indicate that 14 peptides contain T cell epitopes of Ag5. Three of these peptides are recognized by three of the four strains tested, five of them by two strains and the remaining six by only one strain. […] They are peptides 1, 2, 5, 6, 9, 15, 20 and 18. […] This is particularly apparent for peptides 6, 20, and 18.

[5] = system: r-Ag5 specific spleen cells from C3H/He mice; assay: In vitro proliferation assay, spleen cells of r-Ag5-immunized C3H/He mice; settings: spleen cells from mice immunized 5 times with rAg5; blank 3130 cpm
Experimental: as §3, with “13.” for “11.”, “C3H/He” for “ASW/sn”, “3130” for “5640”
as §4

[6] = system: Tpx-C primed spleen cells from BALB/c mice; assay: In vitro proliferation assay, Tpx-C primed spleen cells; settings: BALB/c mice after 4 immunizations with r-fragment Tpx-C (residue 101-163)
Experimental: FIG. 16. Stimulation index profile of BALB/c mice spleen cells after 4 immunizations with Tpx-C. Stimulation was tested with peptide or protein at three different concentrations: Open bars--1×10^-5 M peptide, 5×10^-6 M Frag C or Tpx-C; "uphill" hatch--1.25×10^-6 M peptide; 6.25×10^-7 M Frag C or Tpx-C; "downhill" hatch--1.56×10^-7 M peptide, 7.8×10^-8 M Frag C, Tpx-C: and stippled--9.75×10^-9 M Frag-C or Tpx-C. The blank was 5110 cpm.
as §2

[7] = system: Tpx-N primed spleen cells from BALB/c mice; assay: In vitro proliferation assay, Tpx-N primed spleen cells; settings: BALB/c mice after 4 immunizations with r-fragment Tpx-N (residue 14-106)
Experimental: FIG. 15. Stimulation index profile of BALB/c mice spleen cells after 4 immunizations with Tpx-N. Stimulation was tested with peptide or protein at three different concentrations: Open bars--1.0×10^-5 M peptide or Frag IN, 2.5×10^-6 M Tp X-N; "uphill" hatch--1.25×10^-6 M peptide or Frag IN. 3.13×10^-7 M, Tpx-N; "downhill" hatch--1.5×10^-7 M peptide and Frag IN, 3.91×10^-8 M Tpx-N; and stippled --1.96×10^-8 M Frag IN, 4.89×10^-9 M Tpx-N. The blank was 7270 cpm.
as §2, with “(1992)].” for “(1992)]. Also of interest are the peptide fragments of the vespid venom antigen 5 that contain epitopes recognized by T cells involved in IgE switch events.”

Molecule	Stimulation Index BALB/c [1]	Stimulation Index ASW/Sn [2]	Stimulation Index C57B1/6 [3]	recognition by more than one mouse strain (stimulation indices of ≥4) [4]	stimulation indices, Tpx-C primed spleen cells (FIG. 16) [6]	stimulation indices, Tpx-N primed spleen cells (FIG. 15) [7]	further results
GIHTLCKFGTSMKPNCGRNV [Peptide 2, white face hornet antigen 5 form 2, residue 11-30]	2.9	2.2	1.9	recognized by two or three strains of mice	–	–	recognition by more than one mouse strain (stimulation indices of ≥4) ([4]; listed as SEQ ID NO:9): dominant in more than one strain of mouse
NNYCKIKCRKGIHTLCKFGT [Peptide 1, white face hornet antigen 5 form 2, residue 1-20]	8.6	1.9	2.5	recognized by two or three strains of mice	–	–	stimulation indices (FIG. 4-6 together) ([1]; BALB/c mice immunized 4 times with n-Ag5 or with r-Ag5): ≥ 4; Stimulation Index C3H/He [5]: 2.4; recognition by more than one mouse strain (stimulation indices of ≥4) ([4]; listed as SEQ ID NO:8): dominant in more than one strain of mouse
fragment C: recombinant C-terminal fragment of hornet antigen 5, residue 151-204 (NPKKGTMGDNNFSKVGHYTQMVWGKTKEIGCGSVKYIENNWHTHYLVCNYGPAG)	–	–	–	–	9	–	stimulation indices, Tpx-C primed spleen cells (FIG. 16) ([6]; listed as r-fragment C): responded equally well
fragment IN: recombinant N-terminal fragment of hornet antigen 5, residue 1-114 (protein) PIINLSFGEANNYCKIKCSRGIHTLCKFGTSMKPNCGSKLVKVHGVSNDEKNEIVNRHNQFRQKVAKGLETRGNPGPQPPAKNMNVLVWNDELAKIAQTWANQCSFGHDQCRNT	–	–	–	–	–	greater than 6	stimulation indices, Tpx-N primed spleen cells (FIG. 15) ([7]; listed as r-fragment IN): responded equally well
Tpx-C: recombinant fragment of mouse testis protein Tpx, residue 101-163 (protein) MSTDPTLWSTVIQSWYNENEDFVYGVGAKPNSAVGHYTQLVWYSSFKIGCGIAYCPNQDNLKY	–	–	–	–	greater than 15	–	–
Tpx-N: recombinant fragment of mouse testis protein Tpx, residue 14-106 (protein) LLRSPLTEGKDPDFTSLLTNQLQVQREIVNKHNELRRSVNPTGSDILKMEWSIQATTNAQKWANKCILEHSSKDDRKINIRCGENLYMSTDPT	–	–	–	–	–	greater than 6	–
